Source: PubChem BioAssay AID1259407 (Chemical Carcinogenesis Research Information System (CCRIS), 2018)
Active and inactive are the calls of the source. No rule for the calls is given here.

Tested on: CCRIS mutagenicity, Ames/micronucleus/aberration tests
Test: CCRIS mutagenicity studies
[1] = Test System: AMES SALMONELLA TYPHIMURIUM, Strain/Indicator: TA98, Metabolic Activation: NONE, Method: PREINCUBATION
[2] = Test System: AMES SALMONELLA TYPHIMURIUM, Strain/Indicator: TA100, Metabolic Activation: NONE, Method: PREINCUBATION

Measured: mutagenic call

Nc1ncc([N+](=O)[O-])s1
active: Test System: MOUSE LYMPHOMA, Strain/Indicator: L5178Y (TK+/TK-), Metabolic Activation: NONE, Method: SUSPENSION/PLATE active; positive | Test System: MOUSE LYMPHOMA, Strain/Indicator: L5178Y (TK+/TK-), Metabolic Activation: RAT, LIVER, S-9, AROCLOR 1254, Method: SUSPENSION/PLATE active; positive
inactive: Test System: AMES SALMONELLA TYPHIMURIUM, Strain/Indicator: TA98, Metabolic Activation: HAMSTER, LIVER, S-9, AROCLOR 1254, Method: STANDARD PLATE inactive; negative | Test System: AMES SALMONELLA TYPHIMURIUM, Strain/Indicator: TA98, Metabolic Activation: HAMSTER, LIVER, S-9, Method: STANDARD PLATE inactive; negative | Test System: AMES SALMONELLA TYPHIMURIUM, Strain/Indicator: TA98, Metabolic Activation: MOUSE, LIVER, S-9, AROCLOR 1254, Method: STANDARD PLATE inactive; negative | Test System: AMES SALMONELLA TYPHIMURIUM, Strain/Indicator: TA98, Metabolic Activation: MOUSE, LIVER, S-9, Method: STANDARD PLATE inactive; negative | Test System: AMES SALMONELLA TYPHIMURIUM, Strain/Indicator: TA98, Metabolic Activation: NONE, Method: STANDARD PLATE inactive; negative | Test System: AMES SALMONELLA TYPHIMURIUM, Strain/Indicator: TA98, Metabolic Activation: RAT, LIVER, S-9, AROCLOR 1254, Method: STANDARD PLATE inactive; negative | Test System: AMES SALMONELLA TYPHIMURIUM, Strain/Indicator: TA98, Metabolic Activation: RAT, LIVER, S-9, Method: STANDARD PLATE inactive; negative | Test System: AMES SALMONELLA TYPHIMURIUM, Strain/Indicator: TA100, Metabolic Activation: HAMSTER, LIVER, S-9, AROCLOR 1254, Method: STANDARD PLATE inactive; negative | Test System: AMES SALMONELLA TYPHIMURIUM, Strain/Indicator: TA100, Metabolic Activation: NONE, Method: STANDARD PLATE inactive; negative | Test System: AMES SALMONELLA TYPHIMURIUM, Strain/Indicator: TA1535, Metabolic Activation: HAMSTER, LIVER, S-9, AROCLOR 1254, Method: STANDARD PLATE inactive; negative | Test System: AMES SALMONELLA TYPHIMURIUM, Strain/Indicator: TA1535, Metabolic Activation: HAMSTER, LIVER, S-9, Method: STANDARD PLATE inactive; negative | Test System: AMES SALMONELLA TYPHIMURIUM, Strain/Indicator: TA1535, Metabolic Activation: MOUSE, LIVER, S-9, AROCLOR 1254, Method: STANDARD PLATE inactive; negative | Test System: AMES SALMONELLA TYPHIMURIUM, Strain/Indicator: TA1535, Metabolic Activation: MOUSE, LIVER, S-9, Method: STANDARD PLATE inactive; negative | Test System: AMES SALMONELLA TYPHIMURIUM, Strain/Indicator: TA1535, Metabolic Activation: NONE, Method: STANDARD PLATE inactive; negative | Test System: AMES SALMONELLA TYPHIMURIUM, Strain/Indicator: TA1535, Metabolic Activation: RAT, LIVER, S-9, AROCLOR 1254, Method: STANDARD PLATE inactive; negative | Test System: AMES SALMONELLA TYPHIMURIUM, Strain/Indicator: TA1535, Metabolic Activation: RAT, LIVER, S-9, Method: STANDARD PLATE inactive; negative | Test System: AMES SALMONELLA TYPHIMURIUM, Strain/Indicator: TA1537, Metabolic Activation: HAMSTER, LIVER, S-9, AROCLOR 1254, Method: STANDARD PLATE inactive; negative | Test System: AMES SALMONELLA TYPHIMURIUM, Strain/Indicator: TA1537, Metabolic Activation: HAMSTER, LIVER, S-9, Method: STANDARD PLATE inactive; negative | Test System: AMES SALMONELLA TYPHIMURIUM, Strain/Indicator: TA1537, Metabolic Activation: MOUSE, LIVER, S-9, AROCLOR 1254, Method: STANDARD PLATE inactive; negative | Test System: AMES SALMONELLA TYPHIMURIUM, Strain/Indicator: TA1537, Metabolic Activation: MOUSE, LIVER, S-9, Method: STANDARD PLATE inactive; negative | Test System: AMES SALMONELLA TYPHIMURIUM, Strain/Indicator: TA1537, Metabolic Activation: NONE, Method: STANDARD PLATE inactive; negative | Test System: AMES SALMONELLA TYPHIMURIUM, Strain/Indicator: TA1537, Metabolic Activation: RAT, LIVER, S-9, AROCLOR 1254, Method: STANDARD PLATE inactive; negative | Test System: AMES SALMONELLA TYPHIMURIUM, Strain/Indicator: TA1537, Metabolic Activation: RAT, LIVER, S-9, Method: STANDARD PLATE inactive; negative | Test System: AMES SALMONELLA TYPHIMURIUM, Strain/Indicator: TA1538, Metabolic Activation: HAMSTER, LIVER, S-9, AROCLOR 1254, Method: STANDARD PLATE inactive; negative | Test System: AMES SALMONELLA TYPHIMURIUM, Strain/Indicator: TA1538, Metabolic Activation: HAMSTER, LIVER, S-9, Method: STANDARD PLATE inactive; negative | Test System: AMES SALMONELLA TYPHIMURIUM, Strain/Indicator: TA1538, Metabolic Activation: MOUSE, LIVER, S-9, AROCLOR 1254, Method: STANDARD PLATE inactive; negative | Test System: AMES SALMONELLA TYPHIMURIUM, Strain/Indicator: TA1538, Metabolic Activation: MOUSE, LIVER, S-9, Method: STANDARD PLATE inactive; negative | Test System: AMES SALMONELLA TYPHIMURIUM, Strain/Indicator: TA1538, Metabolic Activation: NONE, Method: STANDARD PLATE inactive; negative | Test System: AMES SALMONELLA TYPHIMURIUM, Strain/Indicator: TA1538, Metabolic Activation: RAT, LIVER, S-9, AROCLOR 1254, Method: STANDARD PLATE inactive; negative | Test System: AMES SALMONELLA TYPHIMURIUM, Strain/Indicator: TA1538, Metabolic Activation: RAT, LIVER, S-9, Method: STANDARD PLATE inactive; negative | Test System: E. COLI, Strain/Indicator: WP2 UVRA, Metabolic Activation: HAMSTER, LIVER, S-9, AROCLOR 1254, Method: STANDARD PLATE inactive; negative | Test System: E. COLI, Strain/Indicator: WP2 UVRA, Metabolic Activation: HAMSTER, LIVER, S-9, Method: STANDARD PLATE inactive; negative | Test System: E. COLI, Strain/Indicator: WP2 UVRA, Metabolic Activation: MOUSE, LIVER, S-9, AROCLOR 1254, Method: STANDARD PLATE inactive; negative | Test System: E. COLI, Strain/Indicator: WP2 UVRA, Metabolic Activation: MOUSE, LIVER, S-9, Method: STANDARD PLATE inactive; negative | Test System: E. COLI, Strain/Indicator: WP2 UVRA, Metabolic Activation: NONE, Method: STANDARD PLATE inactive; negative | Test System: E. COLI, Strain/Indicator: WP2 UVRA, Metabolic Activation: RAT, LIVER, S-9, AROCLOR 1254, Method: STANDARD PLATE inactive; negative | Test System: E. COLI, Strain/Indicator: WP2 UVRA, Metabolic Activation: RAT, LIVER, S-9, Method: STANDARD PLATE inactive; negative

Brc1cccc(-c2ccccc2)c1
inactive: Test System: AMES SALMONELLA TYPHIMURIUM, Strain/Indicator: TA98, Metabolic Activation: HAMSTER, LIVER, S-9, AROCLOR 1254, Method: PREINCUBATION inactive; negative | [1] inactive; negative | Test System: AMES SALMONELLA TYPHIMURIUM, Strain/Indicator: TA98, Metabolic Activation: RAT, LIVER, S-9, AROCLOR 1254, Method: PREINCUBATION inactive; negative | Test System: AMES SALMONELLA TYPHIMURIUM, Strain/Indicator: TA100, Metabolic Activation: HAMSTER, LIVER, S-9, AROCLOR 1254, Method: PREINCUBATION inactive; negative | [2] inactive; negative | Test System: AMES SALMONELLA TYPHIMURIUM, Strain/Indicator: TA100, Metabolic Activation: RAT, LIVER, S-9, AROCLOR 1254, Method: PREINCUBATION inactive; negative | Test System: AMES SALMONELLA TYPHIMURIUM, Strain/Indicator: TA1535, Metabolic Activation: HAMSTER, LIVER, S-9, AROCLOR 1254, Method: PREINCUBATION inactive; negative | Test System: AMES SALMONELLA TYPHIMURIUM, Strain/Indicator: TA1535, Metabolic Activation: NONE, Method: PREINCUBATION inactive; negative | Test System: AMES SALMONELLA TYPHIMURIUM, Strain/Indicator: TA1535, Metabolic Activation: RAT, LIVER, S-9, AROCLOR 1254, Method: PREINCUBATION inactive; negative | Test System: AMES SALMONELLA TYPHIMURIUM, Strain/Indicator: TA1537, Metabolic Activation: HAMSTER, LIVER, S-9, AROCLOR 1254, Method: PREINCUBATION inactive; negative | Test System: AMES SALMONELLA TYPHIMURIUM, Strain/Indicator: TA1537, Metabolic Activation: NONE, Method: PREINCUBATION inactive; negative | Test System: AMES SALMONELLA TYPHIMURIUM, Strain/Indicator: TA1537, Metabolic Activation: RAT, LIVER, S-9, AROCLOR 1254, Method: PREINCUBATION inactive; negative

O=S(=O)(O)c1ccc2cc(O)ccc2c1
inactive: [1] inactive; negative | Test System: AMES SALMONELLA TYPHIMURIUM, Strain/Indicator: TA98, Metabolic Activation: RAT, LIVER, S-9, PHENOBARBITAL, Method: PREINCUBATION inactive; negative | [2] inactive; negative | Test System: AMES SALMONELLA TYPHIMURIUM, Strain/Indicator: TA100, Metabolic Activation: RAT, LIVER, S-9, PHENOBARBITAL, Method: PREINCUBATION inactive; negative
